Measured values reported in US8158589B2, “Peptides with the capacity to bind to transforming growth factor β1 (TGF-β1)” (Proyecto Biomedicine Cima, S.L., priority 2003, dated 2012).
“Also recorded” adds a separate entry of the source. Ends that are not written are not given here.

What was measured:
TGF-β1 [1] = biological target: T1, TGF-β1 (Homo sapiens, UniProt P01137); set-up: purchased R&D Systems; host or cells: added to IMR-90 human lung fibroblasts; conditions: lung fibroblasts, Dotor et al. Cytokine 2007; cited from earlier work
Target sequence in this assay (P01137 279-390 limits assumed): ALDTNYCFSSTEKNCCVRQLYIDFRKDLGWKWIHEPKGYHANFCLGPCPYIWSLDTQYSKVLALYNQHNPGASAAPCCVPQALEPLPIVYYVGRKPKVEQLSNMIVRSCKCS

TGF-β1 [2] = biological target: T1, TGF-β1; assay: Western Blot of p-Smad2, Smad2/3 and Smad7 in primary culture of rabbit corneal fibroblasts; format: cell-based; set-up: host or cells: added to a primary culture of rabbit corneal fibroblasts; conditions: primary culture, TGF-β1 and peptide
Experimental: Therefore, Western Blot and immunofluorescence studies were conducted to determine, from cells extracted from the in vivo studies, the signaling pathway used by the peptides administered topically. It should be emphasized that said studies were conducted on fibroblasts from rabbit cornea and not from rat cornea. This decision was made due to the difficulty entailed in isolating fibroblasts from rodent eyes.
Since the scientific literature repeatedly describes the TGF-β1 signaling pathways, the decision was made to go into depth in such pathways by means of the techniques described in the methodology section. Said pathways involve the study of the Smad protein family, specifically the study of the isoforms Smad2, 2/3 and 7.
To that end, protein extracts obtained from the primary culture of rabbit fibroblasts were treated with TGF-β1 at concentrations of 0, 3 and 5 ng/ml and, 50 and 200 μg/ml of peptide p17 and p144.
Target sequence in this assay (P01137 279-390 limits assumed, species assumed): as the sequence (P01137 279-390 limits assumed) above

TGF-β1 [3] = biological target: T1, TGF-β1; assay: Biopanning of phage-displayed 15-aa peptide library on biotinylated TGF-β1, number of colonies per sequence; format: binding; set-up: purchased Roche; host or cells: added to Mv-1-Lu (CCL-64) mink lung epithelial cells; conditions: clones carrying the sequence among 108 colonies after the last biopanning cycle; approximate indication of affinity for TGF-β1
Source text: These libraries comprise a plurality of filamentous bacteriophages (M13), each one containing a peptide genetically fused to a protein of the virus envelope—in this case bound to the N-terminal end of envelope protein pIII (FIG. 1). […] In the phage libraries, the sequence encoding the peptide originates from a sequence degenerated in each one of the 15 positions with the 20 natural amino acids, thus allowing the presentation of 1.1×10^12 possible sequences of 15 amino acids in different phages. The physical ratio, 1:1, between the peptide sequence and the DNA encoding it within the bacteriophage allows the selection (from a broad range of variants) of those sequences that specifically bind to TGF-β1. This process is carried out via an in vitro selection protocol known as “biopanning”.
This technique involves incubating a set of phages representative (to practical effects) of all the 15-aa variants, in a plate blocked with streptavidin (10 μg/ml in 0.1 M NaHCO3, during 2 h at room temperature) to which biotinylated TGF-β1 is added. […] TGF-β1 contacts the peptides carried by the phages at a concentration of […]. After about 12 hours incubation, unbound phages are eliminated by 5 washings with PBS/Tween (phosphate buffered saline/polyoxyalkylene derivatives of sorbitan fatty acid esters). […] The eluted phages are then amplified by infection in a bacterial strain (E. coli). The process is repeated three cycles so that an enrichment in the content of phages which specifically bind, and with high affinity, to TGF-β1 is achieved (FIG. 3). […] Thus, the phages selected in each cycle show more and more affinity for TGF-β1. At the end of the process, phages which have been selected for their affinity for TGF-β1, are sequenced by using primers, after isolation by tetracycline resistance of the genetically modified phages after infecting E. coli cells. […] The number of times which a sequence is repeated, corresponding to a 15 amino acids peptide carried by each clone, from the total of sequenced colonies is an indication of the degree of relative affinity of said 15 amino acids sequence for TGF-β1.
The selection of clones, obtained from the “biopanning”, was carried out by selection of the bacterial colonies infected with the phages in the presence of a bacterial antibiotic; the bacteria resistance is acquired by a tetracycline resistance gene encoded by the phage genome. Thus, only those colonies infected with bacteriophages are able to grow. This means that each colony contains the genome of only one phage coding for only one peptide presented in its surface.
A total number of 108 colonies of phage-infected bacteria were obtained from the last selection cycle of “biopanning”. The sequence of the regions coding for the peptides present in the pIII protein was carried out using primers identified with SEQ ID NO: 23. This table also reflects the number of colonies (clones) carrying said sequences.
The number of clones (colonies) of each sequence gives an approximate indication of the degree of affinity of the peptide for TGF-β1, that is, the more colonies the more binding affinity.
Target sequence in this assay (P01137 279-390 limits assumed, species assumed): as the sequence (P01137 279-390 limits assumed) above

TGF-β1 [4] = biological target: T2, TGF-β1 (Mus musculus, UniProt P04202); assay: Model of acute liver damage induced by CCl4, type I collagen mRNA by real time PCR; format: in vivo, mice
T2 construct: from tissue; host or cells: liver of Balb/C mice (CCl4 model); lung of C57BL/6 mice (bleomycin model)
T2 sequence (P04202 279-390 limits assumed): as the sequence (P01137 279-390 limits assumed) above, with A75S counted along it
Method in brief: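 Female Balb/C mice (25–30 g) received a single oral dose of CCl4 at 2 µl/g body weight in corn oil (1:1). Peptide was given at 50 µg in 500 µl of 1% saline in DMSO every 24 h. At 72 h, liver type I collagen mRNA was quantified by real-time PCR against corn-oil controls.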

In the case of “KRIWFIPRSSWYERA [SEQ ID NO: 17, KRIWFIPRSSWYERA]”, the “Smad2 phosphorylation induced by TGF-β1” value (TGF-β1 [1]) is given as “decreased”, the “expression of Smad 2/3” value (TGF-β1 [2]) is given as “not affected” and the “expression of Smad 7” value (TGF-β1 [2]) is given as “not modified”. For the same sequence, the No. colonies (TGF-β1 [3]) was 3, the “% Inhibition of type I collagen mRNA induction (in vivo TGF-β1 biological activity)” value (TGF-β1 [4]; Balb/C mice, oral CCl4, 50 μg of peptide every 24 h, sacrifice after 72 hours) was 93.09 ± 9.6% and the “inhibition of the biological activity of TGF-β1 in vivo (in words)” value (TGF-β1 [4]; acute liver damage, type I collagen mRNA) was “most active peptide; also recorded: much greater extent; also recorded: inhibitory capacity; also recorded: capable of inhibiting the expression of collagen type I mRNA”.
